Experimental findings from ChEMBL document CHEMBL6127086, “Recent advances in dual PROTACs degrader strategies for disease treatment” (Eur J Med Chem, 2024) are described below.

For experiment [1], the target named is von Hippel-Lindau disease tumor suppressor/Bcl-2-like protein 1 (Homo sapiens, UniProt Q07817+P40337). The experiment in a line: PROTAC activity at VHL/BCL-XL in human Jurkat cells assessed as induction of BCL-XL degradation incubated for 16 hrs by immunoblot analysis. The class given is cell-based.
The next experiment relates to OVCAR-8. The experiment in a line: Antiproliferative activity against human OVCAR-8 cells assessed as inhibition of growth rate measured for 72 hrs. The class given is functional.
Experiment [2] addresses Protein cereblon/CREB-binding protein (Homo sapiens) (UniProt Q92793+Q96SW2). The experiment in a line: PROTAC activity at CRBN/CBP in human MV4-11 cells assessed as induction of protein degradation by measuring maximal degradation at 250 nM incubated for 24 hrs by Western blotting analysis relative to control. It counts as cell-based.
Experiment [3] deals with T1, von Hippel-Lindau disease tumor suppressor/Bromodomain-containing protein 2 (Homo sapiens, UniProt P25440+P40337). The experiment in a line: PROTAC activity at VHL/BRD2 in human 22Rv1 cells assessed as degradation of BRD2 incubated for 16 hrs by Western blot analysis. It counts as cell-based.
For another experiment, the system named is CWR22R. The experiment can be described thus: Antiproliferative activity against human 22Rv1 cells assessed as reduction in cell viability incubated for 72 hrs by Celltiter- Glo assay. The class given is functional, cell-based. As to conditions: 22Rv1, 72 h.
Another experiment has as its system VCaP. The experiment can be described thus: Antiproliferative activity against human VCaP cells assessed as reduction in cell viability incubated for 72 hrs by Celltiter- Glo assay. It counts as functional, cell-based.
Experiment [4] is described as follows: Antiproliferative activity against human LNCaP-95 cells assessed as reduction in cell viability incubated for 72 hrs by Celltiter- Glo assay. The class given is functional, cell-based. Particulars: LNCaP-95, 72 h.
Experiment [5] deals with T2, Protein cereblon/Tyrosine-protein phosphatase non-receptor type 1 (Homo sapiens, UniProt P18031+Q96SW2). The experiment in a line: PROTAC activity at PTP1B/CRBN human HepG2 cells assessed as protein degradation incubated for 16 hrs by Western blot analysis. The class given is cell-based.
Experiment [6] addresses T2, Protein cereblon/Tyrosine-protein phosphatase non-receptor type 1. The experiment in a line: PROTAC activity at PTP1B/CRBN human HepG2 cells assessed as protein degradation incubated for 24 hrs by Western blot analysis. It counts as cell-based.
Experiment [7] deals with von Hippel-Lindau disease tumor suppressor/Bromodomain-containing protein 4 (Homo sapiens) (UniProt O60885+P40337). The experiment in a line: PROTAC activity at human VHL/BRD4 in human HT-1080 cells assessed as maximum degradation of BRD4 at 0.2 uM incubated for 24 hrs by Western blot analysis relative to control. It counts as cell-based.
The target of experiment [8] is Protein cereblon/Cyclin-dependent kinase 4 (Homo sapiens, UniProt P11802+Q96SW2). The experiment in a line: Protac activity at CRBN/CDK4 in human MDA-MB-231 cells assessed as induction of CDK4 degradation measured after 6 hrs by Western blot analysis. The class given is cell-based.
Experiment [9] addresses Protein cereblon/Cyclin-dependent kinase 6 (Homo sapiens, UniProt Q00534+Q96SW2). The experiment can be described thus: Protac activity at CRBN/CDK6 in human MDA-MB-231 cells assessed as induction of CDK6 degradation measured after 18 hrs by Western blot analysis. It counts as cell-based.
In experiment [10] the target is Protein cereblon/Bromodomain-containing protein 2 (Homo sapiens, UniProt P25440+Q96SW2). The experiment in a line: PROTAC activity at CRBN/BRD2 in human MV4-11 cells assessed as degradation of BRD2 protein incubated for 4 hrs by Western blotting assay. The class given is cell-based.
For experiment [11], the target named is Protein cereblon/Bromodomain-containing protein 3 (Homo sapiens, UniProt Q15059+Q96SW2). The experiment in a line: PROTAC activity at CRBN/BRD3 in human MV4-11 cells assessed as degradation of BRD3 protein incubated for 4 hrs by Western blotting assay. The class given is cell-based.
A short description of experiment [12]: Antiproliferative activity against human MINO cells assessed as reduction in cell viability incubated fro 72 hrs by Celltiter-glo reagent based analysis. The class given is functional.
Experiment [13] has as its target von Hippel-Lindau disease tumor suppressor/WD repeat-containing protein 5 (Homo sapiens, UniProt P61964+P40337). The experiment in a line: PROTAC activity at VHL/WDR5 in human MIA PaCa-2 cells assessed as degradation of WDR5 protein incubated for 18 hrs by Western blotting analysis. The class given is cell-based.
The target of experiment [14] is T3, Cereblon/Ikaros (Homo sapiens, UniProt Q96SW2+Q13422). The experiment can be described thus: PROTAC activity at CRBN/IKZF1 in human MV4-11 cells assessed as degradation of IKZF1 protein incubated for 18 hrs by Western blotting analysis. It counts as cell-based.
For experiment [15], the target named is T3, Cereblon/Ikaros. The experiment in a line: PROTAC activity at CRBN/IKZF1 in human MV4-11 cells assessed as maximum degradation of protein at 0.1 uM incubated for 18 hrs by Western blotting analysis relative to control. The class given is cell-based.
Experiment [16] has as its target T4, Protein cereblon/Bromodomain-containing protein 4 (Homo sapiens, UniProt O60885+Q96SW2). The experiment can be described thus: PROTAC activity at CRBN/BRD4 (unknown origin) expressed in HEK293 cells assessed as induction of BRD4 degradation measured after 4 hrs by Western blot analysis. It counts as cell-based.
Experiment [17] deals with T4, Protein cereblon/Bromodomain-containing protein 4. The experiment can be described thus: PROTAC activity at CRBN/BRD4 (unknown origin) expressed in HEK293 cells assessed as induction of BRD4 degradation incubated for 6 hrs by Western blot analysis. The class given is cell-based.
The next experiment relates to RKO. The experiment can be described thus: Antiproliferative activity against human RKO cells assessed as reduction in cell viability by Celltiter-glo reagent based analysis. It counts as functional.
For experiment [18], the target named is T1, von Hippel-Lindau disease tumor suppressor/Bromodomain-containing protein 2. The experiment can be described thus: PROTAC activity at human VHL/BRD2 in human HeLa cells assessed as degradation of BRD2 incubated for 16 hrs by Western blot analysis. It counts as cell-based.

Starred links: 1 amine or outer side, 2 acyl side, 3 side chain; linkers in the order of their positions; H or OH if unused. Non-standard residues stand in square brackets, D forms with d. Residues, ends and D or L forms follow the SMILES beside them. *: point of attachment. X1 = O=C([C@H](Cc1ccc(C(F)(F)P(=O)(O)O)cc1)O[*:1])[*:2]; NHCH2(1,3-C6H4)CH2CO = O=C(Cc1cccc(CN[*:1])c1)[*:2]; Phenylacetyl(4-OH,3-OMe) = COc1cc(CC(=O)*)ccc1O; Benzoyl(3-Br,4-Me) = Cc1ccc(C(=O)*)cc1Br; X2 = Cc1ncsc1-c1ccc([C@@H](C)N*)cc1; Hyp = O=C(O)[C@@H]1C[C@@H](O)CN1; Tle = CC(C)(C)[C@H](N)C(=O)O

T2 sequence (P18031 whole entry): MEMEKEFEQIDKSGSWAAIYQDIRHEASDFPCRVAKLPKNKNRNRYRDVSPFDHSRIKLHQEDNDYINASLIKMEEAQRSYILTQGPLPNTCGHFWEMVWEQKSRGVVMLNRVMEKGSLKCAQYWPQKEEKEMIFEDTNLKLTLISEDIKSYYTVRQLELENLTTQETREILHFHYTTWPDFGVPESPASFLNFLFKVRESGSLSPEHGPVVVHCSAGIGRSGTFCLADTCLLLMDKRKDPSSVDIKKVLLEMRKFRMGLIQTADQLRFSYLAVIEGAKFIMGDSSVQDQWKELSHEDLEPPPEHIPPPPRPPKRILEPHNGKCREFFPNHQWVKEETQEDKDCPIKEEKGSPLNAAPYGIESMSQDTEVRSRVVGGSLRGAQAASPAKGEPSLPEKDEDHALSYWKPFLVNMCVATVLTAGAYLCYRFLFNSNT
T2 sequence (Q96SW2 whole entry): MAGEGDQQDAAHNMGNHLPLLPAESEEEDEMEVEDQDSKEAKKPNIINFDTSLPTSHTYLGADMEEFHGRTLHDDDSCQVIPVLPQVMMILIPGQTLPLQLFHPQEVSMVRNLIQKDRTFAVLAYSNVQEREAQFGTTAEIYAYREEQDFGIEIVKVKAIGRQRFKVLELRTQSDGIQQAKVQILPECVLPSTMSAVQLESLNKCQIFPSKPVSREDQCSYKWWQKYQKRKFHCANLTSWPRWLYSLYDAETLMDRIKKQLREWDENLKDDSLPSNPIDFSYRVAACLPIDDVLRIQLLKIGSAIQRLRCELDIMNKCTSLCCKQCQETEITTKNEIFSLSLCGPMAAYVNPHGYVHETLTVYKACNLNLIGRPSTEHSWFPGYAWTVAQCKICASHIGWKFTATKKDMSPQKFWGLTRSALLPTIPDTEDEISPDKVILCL
T1 sequence (P25440 whole entry): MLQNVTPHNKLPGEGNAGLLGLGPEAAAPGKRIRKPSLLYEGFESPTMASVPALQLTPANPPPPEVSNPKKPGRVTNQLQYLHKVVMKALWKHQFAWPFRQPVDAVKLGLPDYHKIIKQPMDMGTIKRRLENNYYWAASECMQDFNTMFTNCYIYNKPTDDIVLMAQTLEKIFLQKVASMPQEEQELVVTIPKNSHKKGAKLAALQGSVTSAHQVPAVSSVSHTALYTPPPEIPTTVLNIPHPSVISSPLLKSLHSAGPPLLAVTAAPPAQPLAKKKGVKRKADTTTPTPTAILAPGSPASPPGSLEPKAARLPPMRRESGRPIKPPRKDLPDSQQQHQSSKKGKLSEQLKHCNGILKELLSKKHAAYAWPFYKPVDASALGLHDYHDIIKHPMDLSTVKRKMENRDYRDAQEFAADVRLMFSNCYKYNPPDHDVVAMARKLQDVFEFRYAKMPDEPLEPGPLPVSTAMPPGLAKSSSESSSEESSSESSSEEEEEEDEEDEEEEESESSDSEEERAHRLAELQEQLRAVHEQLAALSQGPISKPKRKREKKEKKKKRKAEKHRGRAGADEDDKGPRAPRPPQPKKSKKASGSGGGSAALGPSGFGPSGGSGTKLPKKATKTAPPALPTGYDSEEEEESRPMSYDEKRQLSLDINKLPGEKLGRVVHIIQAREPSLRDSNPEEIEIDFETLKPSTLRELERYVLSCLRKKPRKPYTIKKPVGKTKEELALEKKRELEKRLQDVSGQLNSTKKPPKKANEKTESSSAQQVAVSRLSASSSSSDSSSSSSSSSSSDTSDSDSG
T1 sequence (P40337 whole entry): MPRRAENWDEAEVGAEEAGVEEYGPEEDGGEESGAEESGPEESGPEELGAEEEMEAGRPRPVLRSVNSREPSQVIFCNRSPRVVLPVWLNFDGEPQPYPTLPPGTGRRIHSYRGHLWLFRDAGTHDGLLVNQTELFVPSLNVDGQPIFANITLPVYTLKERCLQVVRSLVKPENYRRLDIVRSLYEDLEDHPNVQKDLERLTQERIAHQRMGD
T4 sequence (Q96SW2 whole entry, looked up, other chains not shown): as the sequence (Q96SW2 whole entry) above
Protein cereblon/Bromodomain-containing protein 3, sequence (Q15059 whole entry): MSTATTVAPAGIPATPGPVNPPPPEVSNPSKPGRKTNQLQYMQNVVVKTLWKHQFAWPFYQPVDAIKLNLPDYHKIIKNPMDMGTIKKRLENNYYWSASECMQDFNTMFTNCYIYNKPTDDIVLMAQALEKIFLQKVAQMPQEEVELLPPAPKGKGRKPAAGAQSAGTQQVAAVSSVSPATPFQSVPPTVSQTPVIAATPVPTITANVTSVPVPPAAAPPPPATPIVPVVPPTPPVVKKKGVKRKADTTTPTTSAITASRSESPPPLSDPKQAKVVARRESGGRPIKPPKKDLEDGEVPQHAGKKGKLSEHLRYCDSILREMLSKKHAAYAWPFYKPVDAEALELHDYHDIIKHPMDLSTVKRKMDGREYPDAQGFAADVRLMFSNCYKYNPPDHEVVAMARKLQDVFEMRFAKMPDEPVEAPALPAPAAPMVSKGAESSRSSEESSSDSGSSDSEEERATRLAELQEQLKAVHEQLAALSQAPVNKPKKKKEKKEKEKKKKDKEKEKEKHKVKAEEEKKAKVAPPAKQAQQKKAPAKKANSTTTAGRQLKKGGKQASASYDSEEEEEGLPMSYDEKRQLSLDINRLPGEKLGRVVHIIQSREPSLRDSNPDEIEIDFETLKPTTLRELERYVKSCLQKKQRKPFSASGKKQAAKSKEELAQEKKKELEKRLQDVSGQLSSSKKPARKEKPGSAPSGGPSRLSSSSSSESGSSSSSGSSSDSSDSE
Protein cereblon/Bromodomain-containing protein 3, sequence (Q96SW2 whole entry): as the sequence (Q96SW2 whole entry) above
von Hippel-Lindau disease tumor suppressor/Bcl-2-like protein 1, sequence (Q07817 whole entry): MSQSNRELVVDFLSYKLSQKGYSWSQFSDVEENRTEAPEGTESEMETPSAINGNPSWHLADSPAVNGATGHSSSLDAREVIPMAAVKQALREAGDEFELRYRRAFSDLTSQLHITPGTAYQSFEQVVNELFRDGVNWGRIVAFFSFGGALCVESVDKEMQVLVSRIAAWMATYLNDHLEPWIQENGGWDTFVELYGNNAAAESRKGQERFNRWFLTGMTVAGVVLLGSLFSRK
von Hippel-Lindau disease tumor suppressor/Bcl-2-like protein 1, sequence (P40337 whole entry): as the sequence (P40337 whole entry) above
Protein cereblon/Cyclin-dependent kinase 6, sequence (Q00534 whole entry): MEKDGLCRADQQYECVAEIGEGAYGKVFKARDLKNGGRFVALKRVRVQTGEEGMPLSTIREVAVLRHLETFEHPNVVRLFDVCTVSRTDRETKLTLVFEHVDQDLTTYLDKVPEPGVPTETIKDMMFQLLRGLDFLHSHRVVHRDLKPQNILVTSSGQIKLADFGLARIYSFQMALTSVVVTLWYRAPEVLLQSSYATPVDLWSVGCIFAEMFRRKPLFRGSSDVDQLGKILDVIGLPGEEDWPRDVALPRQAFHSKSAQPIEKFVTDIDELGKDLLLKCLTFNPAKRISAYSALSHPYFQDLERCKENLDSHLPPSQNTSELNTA
Protein cereblon/Cyclin-dependent kinase 6, sequence (Q96SW2 whole entry): as the sequence (Q96SW2 whole entry) above
Protein cereblon/Cyclin-dependent kinase 4, sequence (P11802 whole entry): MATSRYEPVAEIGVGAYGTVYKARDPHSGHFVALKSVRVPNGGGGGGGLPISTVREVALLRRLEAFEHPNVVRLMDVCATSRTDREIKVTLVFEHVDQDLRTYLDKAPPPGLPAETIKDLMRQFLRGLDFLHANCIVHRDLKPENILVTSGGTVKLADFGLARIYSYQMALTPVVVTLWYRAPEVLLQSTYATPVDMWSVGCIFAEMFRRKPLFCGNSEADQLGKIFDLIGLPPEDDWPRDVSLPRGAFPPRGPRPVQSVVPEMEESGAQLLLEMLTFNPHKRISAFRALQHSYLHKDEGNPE
Protein cereblon/Cyclin-dependent kinase 4, sequence (Q96SW2 whole entry): as the sequence (Q96SW2 whole entry) above
Protein cereblon/Bromodomain-containing protein 2, sequence (P25440 whole entry): as the sequence (P25440 whole entry) above
Protein cereblon/Bromodomain-containing protein 2, sequence (Q96SW2 whole entry): as the sequence (Q96SW2 whole entry) above
von Hippel-Lindau disease tumor suppressor/Bromodomain-containing protein 4 (Homo sapiens), sequence (P40337 whole entry, looked up, other chains not shown): as the sequence (P40337 whole entry) above

Consider `Cc1ncsc1-c1ccc([C@H](C)NC(=O)[C@@H]2C[C@@H](O)CN2C(=O)[C@@H](NC(=O)CN2CCN(CC(=O)N3CCN(C[C@]4(C)CCC(c5ccc(Cl)cc5)=C(CN5CCN(c6ccc(C(=O)NS(=O)(=O)c7ccc(N[C@H](CCN8C[C@H]9C[C@@H]8CO9)CSc8ccccc8)c(S(=O)(=O)C(F)(F)F)c7)cc6)CC5)C4)CC3)CC2)C(C)(C)C)cc1`, for which the DC50 in experiment [1] amounted to 0.6 nM.

Turning to `Cc1cc(S(=O)(=O)NCCOCCOCCOCCOCCNc2cccc3c2C(=O)N(C2CCC(=O)NC2=O)C3=O)ccc1Nc1ncc(Br)c(Nc2cccc(F)c2C(N)=O)n1` (configuration not stated), in the experiment with OVCAR-8, the GR50 is 33.1 nM.

Regarding `CNC(=O)N1CCc2c(c(N3CCCc4cc(-c5cnn(C)c5)c(C(F)F)cc43)nn2C2CCN(C(=O)CCOCCOCCOCCOCCNc3ccc4c(c3)C(=O)N(C3CCC(=O)NC3=O)C4=O)CC2)C1` (configuration not stated), the Emax in experiment [2] is > 100%.

On to `Cc1ncsc1-c1ccc([C@H](C)NC(=O)[C@@H]2C[C@@H](O)CN2C(=O)[C@@H](NC(=O)COCCCOCCNC(=O)C[C@@H]2N=C(c3ccc(Cl)cc3)c3c(sc(C)c3C)-n3c(C)nnc32)C(C)(C)C)cc1`, for which the DC50 in experiment [3] is < 5 nM. The IC50 (in the experiment with CWR22R; with VCaP; in experiment [4]) was < 1 nM each time.

As to `COc1cc(CC(=O)N[C@@H](Cc2ccccc2)C(=O)O[C@@H](Cc2ccc(C(F)(F)P(=O)(O)O)cc2)C(=O)N[C@@H](CCCCNC(=O)c2ccc(C)c(Br)c2)C(=O)NCc2cccc(CC(=O)N[C@H](C(=O)N3C[C@H](O)C[C@H]3C(=O)N[C@H](C)c3ccc(-c4scnc4C)cc3)C(C)(C)C)c2)ccc1O` ({Phenylacetyl(4-OH,3-OMe)}-F[X1]K(Benzoyl(3-Br,4-Me))[NHCH2(1,3-C6H4)CH2CO][Tle][Hyp]-X2), the DC50 in [5] stood at 14.1 nM; in experiment [6], 8.7 nM.

With `Cc1ncsc1-c1ccc(NC(=O)[C@@H]2C[C@@H](O)CN2C(=O)[C@@H](NC(=O)COCCOCCOc2cc(OCC(=O)OC(C)(C)C)ccc2NC(=O)C[C@@H]2N=C(c3ccc(Cl)cc3)c3c(sc(C)c3C)-n3c(C)nnc32)C(C)(C)C)cc1`, in experiment [7], the Emax was determined as 93%.

`CN(C)C(=O)c1cc2cnc(Nc3ccc(N4CCN(Cc5cn(CCCCCC(=O)Nc6cccc7c6C(=O)N(C6CCC(=O)NC6=O)C7=O)nn5)CC4)cn3)nc2n1C1CCCC1` (configuration not stated): the DC50 in [8] is 97 nM; in experiment [9], 300 nM.

In the case of `Cc1ncsc1-c1ccc(CNC(=O)[C@@H]2C[C@@H](O)CN2C(=O)[C@@H](NC(=O)OCC(C)(COCCOCCOCCNC(=O)C[C@@H]2N=C(c3ccc(Cl)cc3)c3c(sc(C)c3C)-n3c(C)nnc32)COCCOCCOCCNC(=O)C[C@@H]2N=C(c3ccc(Cl)cc3)c3c(sc(C)c3C)-n3c(C)nnc32)C(C)(C)C)cc1`, the results for the 50% degradation concentration (DC50) in experiment [10] and in experiment [11] were 1.1 nM and 3.3 nM, respectively.

Take `Cc1sc2c(c1C)C(c1ccc(Cl)cc1)=N[C@@H](CC(=O)Nc1ccc(OCCOCCOCCOCCNc3cccc4c3C(=O)N(C3CCC(=O)NC3=O)C4=O)cc1)c1nnc(C)n1-2` (some centres not stated): the IC50 in experiment [12] turned out to be 14.5 nM.

As to `CN1CCN(c2ccc(-c3cccc(CN4CCN(CCNC(=O)CCCCCCCNc5cccc6c5C(=O)N(C5CCC(=O)NC5=O)C6=O)CC4)c3)cc2NC(=O)c2c[nH]c(=O)cc2C(F)(F)F)CC1` (configuration not stated), the results for the DC50 (in experiment [13]; on Cereblon/Ikaros [14]) were 42 nM and 500 nM, respectively. Further, the Emax at Cereblon/Ikaros [15] was 90%.

As for `Cc1ncsc1-c1ccc([C@H](C)NC(=O)[C@@H]2C[C@@H](O)CN2C(=O)[C@@H](NC(=O)OCC(C)(COCCOCCOCCNC(=O)C[C@@H]2N=C(c3ccc(Cl)cc3)c3c(sc(C)c3C)-n3c(C)nnc32)COCCOCCOCCNc2cc3c(cc2F)C(=O)N(C2CCC(=O)NC2=O)C3=O)C(C)(C)C)cc1` (some centres not stated), the DC50 in experiment [16] is 2.3 nM; in [17], 2.1 nM; in experiment [18] it was 15 nM. Moreover, in the experiment with RKO, the EC50 was determined as 111 nM.
